The target in data set [1] is Trypsin (Sus scrofa, UniProt P00761). The data set is described as follows: porcine trypsin inhibitors, dose response, selectivity assay for Rce1 protease inhibitor project, biochemical, quenched peptide fluorescence, cherry-pick (AID 488789).
Data set [2] concerns the target CAAX prenyl protease 2 (Homo sapiens, UniProt Q9Y256). The data set is described as follows: human Rce1 protease inhibitors, dose response, biochemical, yeast membranes, quenched-peptide fluorescence, cherry-pick (AID 588849).
The target of data set [3] is Troponin, cardiac muscle (Homo sapiens, UniProt P19429+P45379+P63316). The data set is described as follows: Fluorescence-based biochemical high throughput dose response assay for activators of the calcium sensitivity of cardiac Regulated Thin Filaments (RTF). [Related pubchem assays (depositor defined):AID493008, AID493018, AID504382, AID504383]. The data set is classed as protein-complex assay.

Data set [4] relates to Escherichia coli. Put plainly: microbe, parasite or virus in culture.
Data set [5] has as its target T1, Short transient receptor potential channel 4 (Mus musculus, UniProt Q9QUQ5).
T1 sequence (Q9QUQ5 whole entry): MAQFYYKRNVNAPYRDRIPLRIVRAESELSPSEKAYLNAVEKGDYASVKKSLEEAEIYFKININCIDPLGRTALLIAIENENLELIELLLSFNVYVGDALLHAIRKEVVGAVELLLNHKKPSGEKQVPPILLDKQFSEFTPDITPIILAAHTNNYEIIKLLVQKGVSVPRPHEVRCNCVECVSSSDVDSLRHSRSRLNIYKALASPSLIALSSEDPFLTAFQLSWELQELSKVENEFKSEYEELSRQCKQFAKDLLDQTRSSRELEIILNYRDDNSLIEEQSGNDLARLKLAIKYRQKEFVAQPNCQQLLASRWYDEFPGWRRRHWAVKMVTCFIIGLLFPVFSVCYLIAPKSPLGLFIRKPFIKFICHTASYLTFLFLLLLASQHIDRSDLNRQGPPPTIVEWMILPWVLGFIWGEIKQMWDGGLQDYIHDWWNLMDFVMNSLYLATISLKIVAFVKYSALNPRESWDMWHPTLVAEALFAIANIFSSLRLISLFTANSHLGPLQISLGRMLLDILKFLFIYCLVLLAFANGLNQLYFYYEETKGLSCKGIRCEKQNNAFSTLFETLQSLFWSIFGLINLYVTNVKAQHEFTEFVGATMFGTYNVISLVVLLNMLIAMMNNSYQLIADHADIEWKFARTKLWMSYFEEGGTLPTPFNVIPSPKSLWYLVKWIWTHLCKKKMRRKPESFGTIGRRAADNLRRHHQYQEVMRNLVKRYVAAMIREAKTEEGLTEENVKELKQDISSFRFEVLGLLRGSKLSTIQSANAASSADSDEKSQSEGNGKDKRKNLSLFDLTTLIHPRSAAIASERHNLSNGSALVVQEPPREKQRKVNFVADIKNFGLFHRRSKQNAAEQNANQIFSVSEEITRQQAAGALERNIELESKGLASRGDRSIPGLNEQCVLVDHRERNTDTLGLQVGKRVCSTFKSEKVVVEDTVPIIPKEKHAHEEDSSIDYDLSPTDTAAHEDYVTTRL
The data set is described as follows: mouse TRPC4 channel activators, dose response, cell-based, HEK293 TRPC4/mu-opioid, Fluo-4 calcium (AID 434937). The class given is functional.

Data set [6] concerns the target T2, Delta-type opioid receptor (Homo sapiens, UniProt P41143). Put plainly: Counterscreen for agonists of heterodimerization of the mu 1 (OPRM1) and delta 1 (OPRD1) opioid receptors: Luminescence-based cell-based high throughput dose response assay to identify agonists of OPRD1 homodimerization. [Related pubchem assays (depositor defined):AID504326, AID504355, AID504692, AID504904, AID504905]. The class given is functional.

Data set [7] addresses T3, Mu-type opioid receptor (Homo sapiens, UniProt P35372). The data set is described as follows: Counterscreen for agonists of heterodimerization of the mu 1 (OPRM1) and delta 1 (OPRD1) opioid receptors: Luminescence-based cell-based high throughput dose response assay to identify agonists of OPRM1 homodimerization. The class given is functional. For orientation: Counterscreens check selectivity or assay interference.

In data set [8] the target is 5-hydroxytryptamine receptor 5A (Homo sapiens, UniProt P47898). The data set is described as follows: Counterscreen for agonists of OPRM1-OPRD1 heterodimerization: luminescence-based cell-based high throughput dose response assay to identify agonists of 5-hydroxytryptamine (serotonin) 5A receptor (HTR5A). [Related pubchem assays (depositor defined):AID504326, AID504355, AID504692, AID504904, AID504905]. The data set is classed as functional.

A short description of data set [9]: inhibitors of HIV Env-driven cell fusion, dose response, cherry-pick (AID 652057). The data set is classed as functional, cell-based.
Data set [10] can be described thus: CEM21 lymphoblast cell cytotoxicity, dose response, cytotoxicity control for viral fusion inhibitor project, CellTiter-Glo luminescence, cherry-picked (AID 652042).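 Also: potency for signal decrease meaning cytotoxicity.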 The data set is classed as functional, cell-based. (In ATP-based viability assays light output follows the ATP content of the culture.)
The nature of data set [11]: ZM109 Env clade C HIV-1 fusion inhibitors, dose response, HeLa effector, CEM target cells, luciferase, cherry-pick (AID 652058). The class given is functional, cell-based.
A short description of data set [12]: off-target signal loss in HeLa-CEM21 co-culture – HeLa F-luc CTL cells, cherry-picked, counter-screen for HIV-1 Env fusion inhibitor project, dose response (AID 652040).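 Also: potency for signal decrease marking cytotoxic or nonspecific inhibition.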 The data set is classed as functional, cell-based.
Data set [13] in a line: inhibitors of clade B AD8 Env fusion, dose response, cell-based, cherry-pick (AID 652062).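 Also: luciferase signal from cell-cell fusion driven by HIV-1 clade B AD8 Env; potency is for inhibitors of fusion seen as a drop in luminescence.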 The data set is classed as functional.
Data set [14] addresses T4, Cytochrome P450 2D6 (Homo sapiens, UniProt P10635).
In data set [15] the target is T2, Delta-type opioid receptor. The data set is described as follows: HTS Image-Based Screen for Antagonists of the DOR Receptor. [Related pubchem assays (depositor defined):AID1777, AID1785, AID1786, AID2133]. The class given is functional.
The target in data set [16] is T3, Mu-type opioid receptor. The data set is described as follows: HTS Image-Based Screen for Agonists of the MOR Receptor. [Related pubchem assays (depositor defined):AID1777, AID1785, AID1786, AID2133]. The class given is functional.
The target of data set [17] is T2, Delta-type opioid receptor. The data set is described as follows: HTS Image-Based Screen for Agonists of the DOR Receptor. [Related pubchem assays (depositor defined):AID1777, AID1786, AID2133]. The data set is classed as functional.
In data set [18] the target is T5, Kappa-type opioid receptor (Homo sapiens, UniProt P41145). The class given is functional.
Data set [19] deals with Beta-galactosidase (Escherichia coli, UniProt Q8VNN2). The class given is functional.
Data set [20] addresses T5, Kappa-type opioid receptor. The data set is classed as functional. This is another data set of the same source.
The target in data set [21] is T6, Voltage-gated N-type calcium channel alpha-1B subunit/Amyloid beta A4 precursor protein-binding family A member 1 (Homo sapiens, UniProt Q00975+Q02410). The class given is protein assay.
The target in data set [22] is T7, Mannose-6-phosphate isomerase (Homo sapiens, UniProt P34949).
T7 sequence (P34949 whole entry): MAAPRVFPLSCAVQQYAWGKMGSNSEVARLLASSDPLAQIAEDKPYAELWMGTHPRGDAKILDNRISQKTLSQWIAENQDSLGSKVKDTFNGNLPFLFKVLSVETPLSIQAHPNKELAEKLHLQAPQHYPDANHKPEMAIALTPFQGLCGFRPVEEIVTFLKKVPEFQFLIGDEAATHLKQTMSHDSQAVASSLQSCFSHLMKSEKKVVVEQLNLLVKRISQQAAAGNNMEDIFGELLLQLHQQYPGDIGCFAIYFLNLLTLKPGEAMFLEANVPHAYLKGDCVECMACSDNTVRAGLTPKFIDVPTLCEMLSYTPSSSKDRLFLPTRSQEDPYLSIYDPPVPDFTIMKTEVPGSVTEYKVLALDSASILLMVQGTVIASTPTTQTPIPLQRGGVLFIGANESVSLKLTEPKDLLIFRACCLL
The data set is described as follows: inhibitors of human PMI, primary screen, biochemical, fluorescence intensity, coupled assay (AID 1209).

The target of data set [23] is T6, Voltage-gated N-type calcium channel alpha-1B subunit/Amyloid beta A4 precursor protein-binding family A member 1. The data set is classed as protein assay. This is another data set of the same source.
The target of data set [24] is DNA dC->dU-editing enzyme APOBEC-3A (Homo sapiens, UniProt P31941). The data set is described as follows: APOBEC3A DNA deaminase inhibitors, dose response, biochemical (AID 504722). The class given is functional.
Data set [25] concerns the target Eukaryotic translation initiation factor 4E (Mus musculus, UniProt P63073). The data set is described as follows: eIF4E–eIF4G protein interaction inhibitors, dose response, biochemical, TR-FRET (AID 855).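 Also: potency for disrupting eIF4E binding to eIF4GI seen as loss of FRET.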 The class given is functional. (In general: In TR-FRET formats the signal depends on donor and acceptor labels being close together.)
Data set [26] has as its target DNA dC->dU-editing enzyme APOBEC-3G (Homo sapiens, UniProt Q9HC16). Put plainly: Dose Response confirmation of small molecule APOBEC3G DNA Deaminase Inhibitors via a fluorescence-based single-stranded DNA deaminase assay. [Related pubchem assays (depositor defined):AID493012, AID493028]. The data set is classed as functional.
Data set [27] deals with T4, Cytochrome P450 2D6. The source holds these as a separate data set.

pIC50: −log10 of the molar value. Activity calls are given as the source filed them. Where only a bound is given, the exact number is not on record here.

Usually AC50 stands for the concentration at which the activity in the assay is half-maximal. As usually defined, the EC50 is the concentration giving half of the maximal effect. The IC50 is the midpoint of a concentration-inhibition curve. A word on the pIC50: it is −log10 of the IC50, conventionally taken in molar units. Low values mean a large IC50, high ones a small IC50.

T2 sequence (P41143 whole entry): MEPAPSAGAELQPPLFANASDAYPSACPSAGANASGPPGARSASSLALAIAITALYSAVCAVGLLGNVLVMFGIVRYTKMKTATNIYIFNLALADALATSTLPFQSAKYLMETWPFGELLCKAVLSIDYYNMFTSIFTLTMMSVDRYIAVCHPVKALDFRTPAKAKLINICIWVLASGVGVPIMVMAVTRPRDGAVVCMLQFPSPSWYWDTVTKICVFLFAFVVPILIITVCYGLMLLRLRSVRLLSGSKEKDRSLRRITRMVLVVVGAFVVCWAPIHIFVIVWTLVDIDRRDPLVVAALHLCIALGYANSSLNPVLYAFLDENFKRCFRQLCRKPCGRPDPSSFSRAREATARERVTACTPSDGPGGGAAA
T4 sequence (P10635 whole entry): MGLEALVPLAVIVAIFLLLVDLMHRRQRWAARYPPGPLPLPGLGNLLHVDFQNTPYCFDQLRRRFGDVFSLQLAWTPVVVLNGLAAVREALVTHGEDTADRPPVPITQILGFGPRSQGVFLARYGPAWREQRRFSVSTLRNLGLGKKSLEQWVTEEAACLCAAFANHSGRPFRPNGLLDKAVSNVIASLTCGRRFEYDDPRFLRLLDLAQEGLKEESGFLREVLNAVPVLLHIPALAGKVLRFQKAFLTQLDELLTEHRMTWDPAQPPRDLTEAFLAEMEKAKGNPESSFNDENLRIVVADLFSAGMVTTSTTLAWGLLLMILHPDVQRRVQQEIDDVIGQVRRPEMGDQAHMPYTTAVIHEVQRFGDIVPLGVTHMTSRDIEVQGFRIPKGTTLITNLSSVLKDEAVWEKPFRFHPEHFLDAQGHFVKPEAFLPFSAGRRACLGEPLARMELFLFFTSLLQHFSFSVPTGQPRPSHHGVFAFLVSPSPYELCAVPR
T3 sequence (P35372 whole entry): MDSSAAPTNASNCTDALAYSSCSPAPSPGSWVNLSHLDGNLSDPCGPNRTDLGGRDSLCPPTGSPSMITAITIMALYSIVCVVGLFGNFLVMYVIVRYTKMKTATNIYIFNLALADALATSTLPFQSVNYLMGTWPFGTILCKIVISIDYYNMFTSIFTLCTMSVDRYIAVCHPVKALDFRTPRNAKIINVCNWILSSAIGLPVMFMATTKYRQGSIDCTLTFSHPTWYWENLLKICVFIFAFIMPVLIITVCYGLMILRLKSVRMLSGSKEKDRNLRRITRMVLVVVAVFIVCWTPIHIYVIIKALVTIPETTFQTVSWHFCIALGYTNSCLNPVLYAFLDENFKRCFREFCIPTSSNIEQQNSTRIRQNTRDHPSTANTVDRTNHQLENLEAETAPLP
T6 sequence (Q00975 whole entry): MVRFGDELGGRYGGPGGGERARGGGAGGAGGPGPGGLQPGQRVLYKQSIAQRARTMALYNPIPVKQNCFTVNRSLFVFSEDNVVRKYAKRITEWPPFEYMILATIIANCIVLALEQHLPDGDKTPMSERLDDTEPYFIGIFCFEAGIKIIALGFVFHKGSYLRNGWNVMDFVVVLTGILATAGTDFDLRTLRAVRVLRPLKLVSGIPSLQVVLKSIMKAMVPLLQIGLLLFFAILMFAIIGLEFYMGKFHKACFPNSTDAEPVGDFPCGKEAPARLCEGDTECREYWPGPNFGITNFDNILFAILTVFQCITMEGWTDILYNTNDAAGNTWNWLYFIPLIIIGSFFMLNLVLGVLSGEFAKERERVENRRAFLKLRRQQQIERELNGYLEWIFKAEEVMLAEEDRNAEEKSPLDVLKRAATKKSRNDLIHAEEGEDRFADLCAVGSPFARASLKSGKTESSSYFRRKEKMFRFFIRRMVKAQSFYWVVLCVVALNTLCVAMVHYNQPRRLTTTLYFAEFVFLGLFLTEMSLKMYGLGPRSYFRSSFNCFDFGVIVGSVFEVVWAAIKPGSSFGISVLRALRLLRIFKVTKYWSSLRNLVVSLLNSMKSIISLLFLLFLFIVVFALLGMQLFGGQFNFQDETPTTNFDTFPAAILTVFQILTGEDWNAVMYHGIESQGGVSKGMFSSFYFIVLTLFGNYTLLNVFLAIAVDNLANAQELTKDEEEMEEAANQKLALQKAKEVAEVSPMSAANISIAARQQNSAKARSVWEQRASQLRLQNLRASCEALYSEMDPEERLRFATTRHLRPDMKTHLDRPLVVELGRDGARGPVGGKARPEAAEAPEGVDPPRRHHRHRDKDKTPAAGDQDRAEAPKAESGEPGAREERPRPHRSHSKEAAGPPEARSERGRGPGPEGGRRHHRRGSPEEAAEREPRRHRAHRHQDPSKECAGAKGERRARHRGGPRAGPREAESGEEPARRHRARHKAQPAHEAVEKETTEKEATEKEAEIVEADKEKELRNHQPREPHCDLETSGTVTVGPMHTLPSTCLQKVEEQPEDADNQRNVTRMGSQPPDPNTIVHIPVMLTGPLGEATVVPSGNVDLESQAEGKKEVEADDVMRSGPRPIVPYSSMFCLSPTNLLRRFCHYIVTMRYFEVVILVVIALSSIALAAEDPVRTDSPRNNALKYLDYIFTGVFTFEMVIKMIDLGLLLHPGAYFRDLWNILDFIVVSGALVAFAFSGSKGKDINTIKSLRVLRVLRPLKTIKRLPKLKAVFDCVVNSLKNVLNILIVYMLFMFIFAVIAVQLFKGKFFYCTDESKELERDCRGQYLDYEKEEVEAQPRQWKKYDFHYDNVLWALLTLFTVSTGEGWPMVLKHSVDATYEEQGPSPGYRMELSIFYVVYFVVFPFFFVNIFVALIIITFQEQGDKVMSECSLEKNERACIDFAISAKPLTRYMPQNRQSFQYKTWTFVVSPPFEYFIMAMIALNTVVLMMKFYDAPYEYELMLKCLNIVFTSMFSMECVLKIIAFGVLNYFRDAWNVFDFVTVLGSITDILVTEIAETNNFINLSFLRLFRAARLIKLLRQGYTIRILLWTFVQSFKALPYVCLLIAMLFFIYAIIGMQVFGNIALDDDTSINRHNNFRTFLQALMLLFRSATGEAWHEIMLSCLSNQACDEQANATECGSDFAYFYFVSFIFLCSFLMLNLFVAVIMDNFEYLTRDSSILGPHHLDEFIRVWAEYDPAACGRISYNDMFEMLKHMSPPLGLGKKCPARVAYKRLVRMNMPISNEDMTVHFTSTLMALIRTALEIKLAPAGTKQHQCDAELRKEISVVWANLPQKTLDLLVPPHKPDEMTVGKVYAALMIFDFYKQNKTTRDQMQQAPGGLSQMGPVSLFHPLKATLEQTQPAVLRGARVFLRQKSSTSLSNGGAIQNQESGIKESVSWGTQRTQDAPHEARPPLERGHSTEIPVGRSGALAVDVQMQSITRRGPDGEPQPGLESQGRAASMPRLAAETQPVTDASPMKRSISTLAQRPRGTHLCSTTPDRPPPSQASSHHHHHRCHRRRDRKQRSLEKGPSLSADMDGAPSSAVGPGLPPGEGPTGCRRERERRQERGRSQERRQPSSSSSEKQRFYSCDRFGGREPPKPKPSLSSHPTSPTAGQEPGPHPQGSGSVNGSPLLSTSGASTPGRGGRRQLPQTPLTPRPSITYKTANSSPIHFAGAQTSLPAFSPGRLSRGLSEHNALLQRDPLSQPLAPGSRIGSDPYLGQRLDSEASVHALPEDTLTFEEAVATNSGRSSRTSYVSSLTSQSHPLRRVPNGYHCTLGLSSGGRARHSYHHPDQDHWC
T6 sequence (Q02410 whole entry): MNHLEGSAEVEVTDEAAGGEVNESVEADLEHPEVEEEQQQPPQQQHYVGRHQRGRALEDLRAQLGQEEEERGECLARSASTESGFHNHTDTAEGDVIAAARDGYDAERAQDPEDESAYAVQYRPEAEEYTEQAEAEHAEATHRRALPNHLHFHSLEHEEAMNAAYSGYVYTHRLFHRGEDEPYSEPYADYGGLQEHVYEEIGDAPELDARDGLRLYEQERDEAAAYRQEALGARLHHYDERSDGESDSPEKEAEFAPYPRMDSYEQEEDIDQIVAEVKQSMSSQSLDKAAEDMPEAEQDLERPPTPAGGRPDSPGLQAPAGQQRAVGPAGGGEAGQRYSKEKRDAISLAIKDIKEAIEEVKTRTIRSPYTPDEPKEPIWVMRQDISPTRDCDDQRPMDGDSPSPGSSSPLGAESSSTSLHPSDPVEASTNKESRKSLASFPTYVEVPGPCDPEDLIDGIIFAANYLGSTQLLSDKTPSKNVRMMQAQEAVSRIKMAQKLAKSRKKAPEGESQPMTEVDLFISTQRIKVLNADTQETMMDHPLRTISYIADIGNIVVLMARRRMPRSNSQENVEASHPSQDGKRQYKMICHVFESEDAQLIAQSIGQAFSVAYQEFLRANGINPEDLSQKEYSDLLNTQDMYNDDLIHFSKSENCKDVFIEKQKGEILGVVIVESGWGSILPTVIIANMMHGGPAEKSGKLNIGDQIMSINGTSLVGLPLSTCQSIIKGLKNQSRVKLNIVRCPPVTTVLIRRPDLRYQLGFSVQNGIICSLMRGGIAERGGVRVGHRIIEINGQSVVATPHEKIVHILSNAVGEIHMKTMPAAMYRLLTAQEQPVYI
T5 sequence (P41145 whole entry): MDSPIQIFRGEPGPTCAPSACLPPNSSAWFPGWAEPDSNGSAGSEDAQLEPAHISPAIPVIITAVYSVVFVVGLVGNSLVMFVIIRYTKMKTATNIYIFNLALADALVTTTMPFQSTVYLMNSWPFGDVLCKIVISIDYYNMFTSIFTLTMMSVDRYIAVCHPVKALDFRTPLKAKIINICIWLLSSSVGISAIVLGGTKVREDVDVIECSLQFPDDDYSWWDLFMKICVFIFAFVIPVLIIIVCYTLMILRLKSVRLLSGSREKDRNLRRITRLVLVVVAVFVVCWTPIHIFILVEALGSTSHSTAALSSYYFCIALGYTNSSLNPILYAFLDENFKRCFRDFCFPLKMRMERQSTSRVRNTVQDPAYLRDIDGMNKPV
Trypsin, sequence (P00761 whole entry): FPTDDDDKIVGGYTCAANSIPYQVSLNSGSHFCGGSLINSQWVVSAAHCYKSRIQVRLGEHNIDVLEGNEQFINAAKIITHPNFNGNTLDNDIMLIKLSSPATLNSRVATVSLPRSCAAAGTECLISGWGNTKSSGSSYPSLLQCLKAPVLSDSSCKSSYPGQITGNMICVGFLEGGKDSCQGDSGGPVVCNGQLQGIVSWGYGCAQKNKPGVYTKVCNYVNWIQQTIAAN

Take `Cc1c(C)c2c(OCC(=O)NCc3ccncc3)cc3c(c2oc1=O)CCC(C)(C)O3`: the AC50 in data set [1] is 5.4 µM (active); in data set [2] it was 0.759 µM (active).
Consider `CCOC(=O)c1cc2n(c1N)-c1ccccc1C2=O`, for which the EC50 in [3] was 24.4 µM (inactive).
Take `COc1ccc(C)cc1S(=O)(=O)N(CC(=O)NC1CCCC1)c1ccc(F)cc1`: in data set [4], the AC50 was 37.2 µM (active).
For `COc1ccc(CNCCc2c[nH]c3ccccc23)c(OC)c1C`, the EC50 in data set [5] is 0.841 µM (active); in [6], > 92.5 µM (inactive); in data set [7], 59.5 µM (inactive); in data set [8], 78.4 µM (inactive). Moreover, the AC50 in data set [9] was 2.44 µM (active); in [10], 24.9 µM (active); in data set [11] it was 7.75 µM (active); in data set [12], 5.48 µM (active); in data set [13] it was 14.3 µM (active).
In the case of `CC(=O)N1c2ccc(S(=O)(=O)CCC(=O)O)cc2CC1C` (stereo not drawn), the AC50 result in data set [14] was “inconclusive”.
Turning to `COc1ccccc1/N=c1\scc(-c2ccc3c(c2)NC(=O)CO3)n1CC1CCCO1` (stereo not drawn), the IC50 was > 32 µM (inactive) in data set [15] and 5.52 µM (active) in data set [18]. Moreover, the EC50 is > 32 µM (inactive) in [16], > 32 µM (inactive) in [17] and > 31.5 µM (inactive) in data set [19]. The compound further had a pIC50 in data set [20] of less than 4.49.
Take `N#Cc1cccc(/N=c2\ssnc2Cl)c1`: the IC50 in data set [21] is 11.3 µM (active); in data set [22] it was 26.7 µM (active); in data set [23], 10.9 µM (active); in data set [24], > 100 µM (inactive); in data set [25], 50 µM (inactive); in data set [26] it was 7.4 µM (active).
As to `CC(=O)Oc1cc(C(C)C)c(OCCN(C)C)cc1C` [MOXISYLYTE], the AC50 in data set [27] and in data set [14] was 10 µM (inconclusive) in each case.
